In patent publication US6489337B1, “Method for treating histamine H3 receptor-mediated disorders with 2- or 3-aryl substituted imidazo[1,2-a] pyridines” (Ortho-McNeil Pharmaceutical, Inc., priority 2000, dated 2002) one finds Ki and melting point data, which are given here for 15 molecules.

Structures can show the parent of a compound that is named as a salt.

T1 sequence (Q9Y5N1 whole entry): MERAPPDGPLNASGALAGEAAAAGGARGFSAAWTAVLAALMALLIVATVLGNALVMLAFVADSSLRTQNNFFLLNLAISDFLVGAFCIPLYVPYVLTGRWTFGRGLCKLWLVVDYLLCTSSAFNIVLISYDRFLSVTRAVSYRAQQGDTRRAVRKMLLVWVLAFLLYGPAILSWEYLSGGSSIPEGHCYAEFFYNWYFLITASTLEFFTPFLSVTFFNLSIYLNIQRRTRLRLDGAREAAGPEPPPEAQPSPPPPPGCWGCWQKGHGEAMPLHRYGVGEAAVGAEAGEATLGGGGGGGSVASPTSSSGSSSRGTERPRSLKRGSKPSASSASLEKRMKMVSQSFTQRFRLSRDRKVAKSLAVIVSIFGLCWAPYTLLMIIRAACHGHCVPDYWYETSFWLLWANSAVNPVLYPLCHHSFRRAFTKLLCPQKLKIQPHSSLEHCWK

The first data set addresses T1, human histamine H3 receptor (Homo sapiens, UniProt Q9Y5N1).
T1 construct: expressed in transfected cells; membranes prepared from cell pellets
In words: [3H]-N-methylhistamine binding. Particulars: membranes of histamine H3 receptor-expressing SK-N-MC cells; 0.8 nM [3H]-N-methylhistamine; 45 minutes at 25° C.; KI=(IC50)/(1+([L]/(KD)), KD 800 pM. As to the method:
In the present invention receptor binding was determined using the human histamine H3 receptor (See Lovenberg et al Mol. Pharmacol. 1999, 1107). Screening using the human receptor is particularly important for the identification of new therapies for the treatment of human disease. Conventional binding assays for example are determined using rat synaptosomes (Garbarg et al J. Pharmacol. Exp. Ther. 1992, 263, 304), rat cortical membranes (West et al Mol. Pharmacol. 1990, 610), and guinea pig brain (Korte et al Biochem. Biophys. Res. Commun. 1990, 978). Only limited studies have been performed previously using human tissue but these allude to significant differences in the pharmacology of rodent and primate receptors (West et al Eur. J. Pharmacol. 1999, 233).
A 10 cm tissue culture dish with a confluent monolayer of SK-N-MC cells was split two days prior to transfection. Using sterile technique the media was removed and the cells were detached from the dish by the addition of trypsin. One fifth of the cells were then placed onto a new 10 cm dish. Cells were grown in a 37° C. incubator with 5% CO2 in Minimal Essential Media Eagle with 10% Fetal Bovine Serum. After two days cells were approximately 80% confluent. These were removed from the dish with trypsin and pelleted in a clinical centrifuge. The pellet was then re-suspended in 400 μL complete media and transferred to an electroporation cuvette with a 0.4 cm gap between the electrodes (Bio-Rad #165-2088). One microgram supercoiled H3 receptor cDNA was added to the cells and mixed. The voltage for the electroporation was set at 0.25 kV, the capacitance is set at 960 μF.
After electroporation the cells were diluted into 10 mL complete media and plated onto four 10 cm dishes. Due to the variability in the efficiency of electroporation, four different concentrations of cells were plated. The ratios used were: 1:20, 1:10, and 1:5, with the remainder of the cells being added to the fourth dish. The cells were allowed to recover for 24 hours before adding the selection media (complete media with 600 μg/ml G418). After 10 days dishes were analyzed for surviving colonies of cells. Dishes with well-isolated colonies were used. Cells from individual colonies were isolated and tested. SK-N-MC cells were used because they give efficient coupling for inhibition of adenylate cyclase. The clones that gave the most robust inhibition of adenylate cyclase in response to histamine were used for further study.
1(B) [^3H]-N-methylhistamine Binding
Cell pellets from histamine H3 receptor-expressing SK-N-MC cells were homogenized in 20 mM TrisHCl/0.5 mM EDTA. Supernatants from a 800 g spin were collected, recentrifuged at 30,000 g for 30 minutes. Pellets were rehomogenized in 50 mM Tris/5 mM EDTA (pH 7.4). Membranes were incubated with 0.8 nM [^3H]-N-methylhistamine plus/minus test compounds for 45 minutes at 25° C. and harvested by rapid filtration over GF/C glass fiber filters (pretreated with 0.3% polyethylenimine) followed by four washes with ice cold buffer. Filters were dried, added to 4 mL scintillation cocktail and then counted on a liquid scintillation counter. Non-specific binding was defined with 10 μM histamine according to Chen and Prusoff, Biochem. Pharmacol. 1973, 22:3099. KI values were calculated based on a KD of 800 pM and a ligand concentration ([L]) of 800 pM according to the formula: KI=(IC50)/(1+([L]/(KD)). KI values are provided in the examples above.
What is called Ki is a dissociation constant, usually derived from enzyme kinetics or from competition with a known ligand. As for `CCCCN(CCCC)CCCOc1ccc(-c2cn3cccc(C)c3n2)cc1` [Example 2, 2-[4-[3-(Dibutylamino)propoxy]phenyl)-8-methylimidazo[1,2-a]pyridine], the Ki is 500 nM.

On to `CCCCN(CCCC)CCCOc1ccc(C(=O)c2cn3ccc(C)cc3n2)cc1` [Example 3, [4-(3-dibutylamino-propoxy)-phenyl]-(7-methyl-imidazo[1,2-a]pyridin-2-yl)-methanone], for which the Ki worked out at 70 nM.

Consider `CCCCN(CCCC)CCCOc1ccc(-c2nc3c(C)cccn3c2C)cc1` [Example 4, 2-(4-Dibutylaminopropoxyphenyl)-3,8-dimethylimidazo[1,2-a]pyridine], for which the Ki was found to be 327 nM. The same measure, in the same setting: the value for `CCCCN(CCCC)CCCOc1ccc(C(=O)c2cn3cccc(C)c3n2)cc1` [Example 5, 2-(4-Dibutylaminopropoxybenzoyl)-8-methylimidazo[1,2-a]pyridine] was 500 nM. `CCCN(CCC)CCCOc1ccc(-c2cn3cccc(C)c3n2)cc1` [Example 7, 2-(4-Dipropylaminopropoxyphenyl)-8-methylimidazo[1,2-a]pyridine] yielded a Ki of 44 nM. Turning to `Cc1cccn2cc(-c3ccc(OCCCN(C)C)cc3)nc12` [Example 8, 2-(4-Dimethylaminopropoxyphenyl)-8-methylimidazo[1,2-a]pyridine], the Ki amounted to 14 nM. In turn, `CN(C)CCCOc1ccc(-c2cn3ccccc3n2)cc1` [Example 9, 2-(4-Dimethylaminopropoxyphenyl)imidazo[1,2-a]pyridine] had a Ki of 119 nM.

`CCN(CC)CCOc1ccc(-c2cn3cccc(C)c3n2)cc1` [Example 10, 2-(4-Diethylaminoethoxyphenyl)-8-methylimidazo[1,2-a]pyridine] displayed a Ki of 15 nM. Still for that read-out and setting: the figure for `Cc1cccn2cc(-c3ccc(OCCN(C(C)C)C(C)C)cc3)nc12` [Example 11, 2-(4-Diisopropylaminoethoxyphenyl)-8-methylimidazo[1,2-a]pyridine] is 55 nM. In turn, `CCCCCN(CCCCC)CCCOc1ccc(-c2cn3cccc(C)c3n2)cc1` [Example 13, 2-(4-Dipentylaminopropoxyphenyl)-8-methylimidazo[1,2-a]pyridine] registered a Ki of 500 nM. Same read-out and setting: the value for `CCCN(CCC)CCCOc1ccc(-c2cn3cccc(C)c3n2)cc1C` [Example 14, 2-(4-Dipropylaminopropoxy-(3-methyl)-phenyl)-8-methylimidazo[1,2-a]pyridine] was 14 nM.

Tested on in another data set: not given
Assay: not given
Details: not given
What is called melting point is the temperature of the solid-liquid transition. The molecule `CCCCN(CCCC)CCCOc1ccc(-c2cn3ccccc3n2)cc1` (as salt: HCl) [Example 1, 2-(4-Dibutylaminopropoxyphenyl)imidazo[1,2-a]pyridine] displayed a melting point of 179 to 183 °C. On the same count and under the same terms, the figure for `CCCCN(CCCC)CCCOc1ccc(-c2cn3cccc(C)c3n2)cc1` (as salt: HCl) [Example 2, 2-[4-[3-(Dibutylamino)propoxy]phenyl)-8-methylimidazo[1,2-a]pyridine] is 214 to 217 °C; for `CCCCN(CCCC)CCCOc1ccc(-c2nc3c(C)cccn3c2C)cc1` (as salt: HCl) [Example 4, 2-(4-Dibutylaminopropoxyphenyl)-3,8-dimethylimidazo[1,2-a]pyridine] it is 202 to 204 °C; for `CCCCN(CCCC)CCCOc1ccc(C(=O)c2cn3cccc(C)c3n2)cc1` (as salt: HCl) [Example 5, 2-(4-Dibutylaminopropoxybenzoyl)-8-methylimidazo[1,2-a]pyridine] it is 159 to 161 °C.
